Measured values taken from article PMC7809625 (Cell Reports, 2021).

Assays:
VGLUT1 [1] = molecular target: T1, VGLUT1 (Rattus norvegicus, UniProt Q62634); assay: inhibition of Na+-dependent Pi uptake in COS7-VGLUT1 cells; assay type: cell-based
T1 sequence (Q62634 1-560): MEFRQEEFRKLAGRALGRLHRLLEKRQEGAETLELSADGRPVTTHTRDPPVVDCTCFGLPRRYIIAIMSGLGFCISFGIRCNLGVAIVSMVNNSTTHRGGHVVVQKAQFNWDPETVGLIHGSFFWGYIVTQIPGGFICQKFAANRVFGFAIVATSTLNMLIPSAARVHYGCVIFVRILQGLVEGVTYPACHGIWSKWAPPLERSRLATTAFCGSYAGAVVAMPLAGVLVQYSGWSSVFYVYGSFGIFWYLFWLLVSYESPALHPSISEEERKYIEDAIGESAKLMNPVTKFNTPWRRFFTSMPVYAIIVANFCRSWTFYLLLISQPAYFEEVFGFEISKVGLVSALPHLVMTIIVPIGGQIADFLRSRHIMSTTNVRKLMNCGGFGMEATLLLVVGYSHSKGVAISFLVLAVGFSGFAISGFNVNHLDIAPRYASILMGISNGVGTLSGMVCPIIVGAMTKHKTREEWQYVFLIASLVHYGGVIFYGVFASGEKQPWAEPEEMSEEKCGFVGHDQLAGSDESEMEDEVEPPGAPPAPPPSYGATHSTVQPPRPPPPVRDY

VGLUT1 [2] = molecular target: T1, VGLUT1; assay: inhibition of Pi uptake in COS7-VGLUT1 cells at […]; assay type: cell-based

Row | SMILES | Ki (VGLUT1 [1]) | inhibition of Pi uptake in COS7-VGLUT1 cells at 10 uM (VGLUT1 [2])
1 | N[C@@H](CCC(=O)O)C(=O)O [glutamate] | 1.37 mM | 
2 | O=C1OC2(c3cc(I)c(O)c(I)c3Oc3c2cc(I)c(O)c3I)c2c(Cl)c(Cl)c(Cl)c(Cl)c21 [RB, Rose bengal] |  | The absence of additive effect of NB9 and RB emphasizes the specificity of both inhibitors toward VGLUT1.
